Measurements from ChEMBL document CHEMBL1150700, “Antitumor agents, 74. Bruceanol-A and -B, two new antileukemic quassinoids from Brucea antidysenterica” (1985).

Assays:
Type in all cases: functional
P388 [1] = test: In vivo antitumor activity against mouse P388 cells at 2 mg/kg in 3 day dosing schedule relative to control
P388 [2] = test: In vivo antitumor activity against mouse P388 cells at 0.5 mg/kg in 3 day dosing schedule relative to control
P388 [3] = test: In vivo antitumor activity against mouse P388 cells at 1 mg/kg in 3 day dosing schedule relative to control
P388 [4] = test: In vivo antitumor activity against mouse P388 cells at 200 mg/kg in 1 day dosing schedule relative to control

SMILES | T/C (P388 [1]) [%] | T/C (P388 [2]) [%] | T/C (P388 [3]) [%] | T/C (P388 [4]) [%]
CCCCCC(=O)O[C@H]1C(=O)O[C@@H]2C[C@H]3C(C)=CC(=O)[C@@H](O)[C@]3(C)[C@H]3[C@@H](O)[C@H](O)[C@@]4(C(=O)OC)OC[C@]32[C@@H]14 | 134 | 123 |  | 
COC(=O)[C@@]12OC[C@]34[C@H]([C@@H](O)[C@@H]1O)[C@@]1(C)[C@H](O)C(=O)C=C(C)[C@@H]1C[C@H]3OC(=O)[C@H](OC(=O)c1ccccc1)[C@@H]24 |  | 130 | 129 | 
O=c1[nH]cc(F)c(=O)[nH]1 [FLUOROURACIL] |  |  |  | 135
